Experiments:
[1] = 8-hour euglycemic clamp, glucose infusion rate (pharmacodynamic profile) after sc lispro ± iloprost; format: in vivo, human; conditions: OT2D subjects with A1c>8%, sc lispro 10 or 30 U with vs without 1 nmol iloprost
From the text: Euglycemic clamp. Subjects were admitted to the Sherbrooke University Hospital Clinical Research Center (CRC) at 8 PM the evening prior to each study. An i.v. antecubital cannula was installed to allow venous sampling for immediate whole blood glucose level measurements by a glucose analyzer ([…] Glucometer, Abbott Diabetes Care Inc.) at 30-min intervals until glycemic target is reached and at 2-hour intervals thereafter. A second contralateral cannula was installed for continuous i.v. administration of regular insulin and glucose, as needed, and plasma glucose has been brought progressively into the normal target range of 5-7 mmol/L overnight and then kept at this level. Experiments started around 8 AM. Patients have been kept fasting (drinking water permitted) during the entire 8-hour clamp study. […] Plasma glucose levels were monitored every 5 min for the first 4 hours and at 10-min intervals thereafter. […] Subjects were allowed to leave when glucose levels were stabilised over 6 mmol/L. Plasma lispro was measured by an ultra-specific radioimmunoassay (Linco Research Inc.) Detection limit is 18 pmol/L, intra-assay CV is 2.5% in our hands (Gagnon-Auger M, et al. Diabetes Care 2010;33(12):2502-7). […] The fractional plasmatic lispro AUCs were calculated by the trapezoidal method. […]

[2] = 8-hour euglycemic clamp, plasma lispro (pharmacokinetic profile) after sc lispro ± iloprost; format: in vivo, human; conditions: OT2D subjects with A1c>8%, sc lispro 10 or 30 U with vs without 1 nmol iloprost
From the text: Euglycemic clamp. Subjects were admitted to the Sherbrooke University Hospital Clinical Research Center (CRC) at 8 PM the evening prior to each study. An i.v. antecubital cannula was installed to allow venous sampling for immediate whole blood glucose level measurements by a glucose analyzer (FreeStlyle Lite Glucometer, Abbott Diabetes Care Inc.) at 30-min intervals until glycemic target is reached and at 2-hour intervals thereafter. A second contralateral cannula was installed for continuous i.v. administration of regular insulin and glucose, as needed, and plasma glucose has been brought progressively into the normal target range of 5-7 mmol/L overnight and then kept at this level. Experiments started around 8 AM. Patients have been kept fasting (drinking water permitted) during the entire 8-hour clamp study. […] Plasma glucose levels were monitored every 5 min for the first 4 hours and at 10-min intervals thereafter. […] Subjects were allowed to leave when glucose levels were stabilised over 6 mmol/L. Plasma lispro was measured by an ultra-specific radioimmunoassay (Linco Research Inc.) Detection limit is 18 pmol/L, intra-assay CV is 2.5% in our hands (Gagnon-Auger M, et al. Diabetes Care 2010;33(12):2502-7). […]
The fractional plasmatic lispro AUCs were calculated by the trapezoidal method. […]

Which “maximal glucose infusion rates” value ([1]; FIG. 8) does the source give for `CC#CCC(C)[C@H](O)/C=C/[C@@H]1[C@H]2C/C(=C/CCCC(=O)O)C[C@H]2C[C@H]1O` (stereo partly shown) [iloprost] here?
Its value is “rapidely increased”.

What about the “hypoglycemic effect (early total glucose infusion, 30 to 60 min)” value ([1]; FIG. 9) of the same compound?
The value was “accelerated”.

What about the “maximal plasma lispro concentrations” value ([2]; FIG. 5) of the same compound?
Its value is “rapidely increased”.

And the “lispro absorption (fractional AUCs of plasmatic lispro, 10 to 40 min)” value ([2]; FIG. 7)?
The value was “accelerated”.
